Patent US20250281499A1, “FUSED AMINO PYRIMIDINE COMPOUNDS FOR TREATMENT OF NEUROPATHIC AND NEURO-INFLAMMATORY PAIN” (Ovid Therapeutics Inc., priority 2024, published 2025)

How the values were obtained:
KCC3 = molecular target: T1, KCC3 (Homo sapiens, UniProt Q9UHW9); assay: Tl+ flux assay, HEK-293 cells expressing KCC3; format: cell-based; conditions: read-out: concentration at which effects on KCC3 were seen (EC50, FIG. 1G)
T1 construct: expressed in transfected cells; host or cells: HEK-293
T1 sequence (Q9UHW9 1-1150): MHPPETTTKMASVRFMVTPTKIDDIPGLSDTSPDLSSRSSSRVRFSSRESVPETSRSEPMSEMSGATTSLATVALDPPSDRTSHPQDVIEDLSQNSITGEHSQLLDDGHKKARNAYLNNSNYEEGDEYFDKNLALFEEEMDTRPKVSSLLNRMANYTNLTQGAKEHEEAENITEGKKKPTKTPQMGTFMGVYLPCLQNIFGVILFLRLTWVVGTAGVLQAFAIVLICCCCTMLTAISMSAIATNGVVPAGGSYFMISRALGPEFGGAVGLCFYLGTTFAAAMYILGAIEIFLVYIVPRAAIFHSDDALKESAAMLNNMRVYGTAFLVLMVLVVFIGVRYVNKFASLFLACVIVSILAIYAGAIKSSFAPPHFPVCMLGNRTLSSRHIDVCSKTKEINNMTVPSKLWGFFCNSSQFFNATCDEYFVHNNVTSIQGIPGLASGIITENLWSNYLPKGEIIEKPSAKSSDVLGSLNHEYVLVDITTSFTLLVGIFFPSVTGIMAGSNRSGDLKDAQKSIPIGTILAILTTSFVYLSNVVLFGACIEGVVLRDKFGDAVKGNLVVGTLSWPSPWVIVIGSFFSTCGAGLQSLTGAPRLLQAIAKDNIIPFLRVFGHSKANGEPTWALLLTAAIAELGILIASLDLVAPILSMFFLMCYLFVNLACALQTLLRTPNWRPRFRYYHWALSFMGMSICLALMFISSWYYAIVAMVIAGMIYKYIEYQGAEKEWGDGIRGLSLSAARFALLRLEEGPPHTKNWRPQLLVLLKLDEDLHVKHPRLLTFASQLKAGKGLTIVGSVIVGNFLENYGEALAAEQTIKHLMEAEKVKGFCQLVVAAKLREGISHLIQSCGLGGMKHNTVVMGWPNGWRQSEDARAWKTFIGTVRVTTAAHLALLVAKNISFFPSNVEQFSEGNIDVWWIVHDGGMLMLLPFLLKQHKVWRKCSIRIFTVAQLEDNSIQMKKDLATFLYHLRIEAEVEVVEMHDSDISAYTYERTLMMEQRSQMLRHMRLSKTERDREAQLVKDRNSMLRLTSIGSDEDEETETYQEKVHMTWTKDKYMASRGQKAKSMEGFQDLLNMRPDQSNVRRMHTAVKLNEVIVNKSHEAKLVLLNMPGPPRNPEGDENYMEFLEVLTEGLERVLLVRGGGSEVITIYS
Experimental: FLIPR TI Flux assay. HEK-293 cells were washed with HBSS, and then incubated with loading buffer containing TI sensitive fluorescent dye (https://www.moleculardevices.com), 20 μM bumetanide 20 μM ouabain and 2.5 mM probenecid for 1 h at room temperature (RT) under control conditions or with drugs in the dark using a FlexStation 3 microplate reader (Molecular Devices) and imaged […] for 30 min. Stimulus buffer was added containing 5 mM K^+/0.5 mM Tl^+ and cells were imaged every 1.5 over a 190 second time course The initial rate Tl^+ uptake (Relative Fluorescence Units (RFU) per second) was determined following addition of the stimulus buffer as outlined previously (Conway et al., 2017, supra) (Lee et al., 2022, supra).
Several studies have shown that the activity and plasma membrane accumulation of KCC2 is potentiated via phosphorylation of S940, a process mediated by the activity of protein kinase C and protein phosphatase 1 (Lee et al, 2011, supra; Lee et al., J Biol Chem 282, 29777-29784 (2007); Moore et al., Proc. Natl. Acad. Sci. U.S.A 115, 10166-10171 (2018); Moore et al., Trends Neurosci. 40, 555-571 (2017); Silayeva et al., Proc. Natl. Acad. Sci. U.S.A. 112, 3523-3528 (2015)). […] Compared to KCC2, effects on KCC3, KCC4, and NKCC1 were only seen at concentrations more than 35-fold that of KCC2 (>100 μM) (FIG. 1G).

[1] = tested on: 18-20 Div hippocampal neurons; assay: Gramicidin perforated patch-clamp, EGABA in hippocampal neurons; format: cell-based, Sprague Dawley; conditions: 300 nM
Experimental: Neuronal Cultures. Hippocampal neurons were prepared from Sprague Dawley E18 embryos and plated at 450,000 per dish and maintained at 37° C. in a humidified 5% CO2 incubator for 10-25 days before experimentation (Lee et al., Nat. Neurosci. 14, 736-743 (2011)).
At this developmental stage, GABAAR receptor activation leads to hyperpolarization, a phenomenon critically dependent upon KCC2 (Kontou et al., J Biol Chem, 100364 (2021)).
Neuronal Patch clamp assays. Neuronal cell culture recordings were performed in bath saline at 34° C. For gramicidin perforated-patch experiments, pipettes contained (in mM): 140 KCl and 10 HEPES, pH 7.4 KOH. For whole-cell experiments, pipettes contained (in mM): 115 K-meth-SO4, 30 KCl, 2 Mg-ATP, 4 Na-ATP, 0.4 Na-GTP, and 10 HEPES, pH 7.4 KOH. Bath saline contained the following (in mM): 140 NaCl, 2.5 KCl, 2.5 CaCl2, 2.5 MgCl2, 10 HEPES, and 11 glucose, pH 7.4 NaOH (Kontou et al., 2021, supra). All compound solutions were applied to cells using a three-barreled 700 μm pipe positioned just above the cell (Warner Instruments). […] All voltages from whole-cell experiments were corrected offline using a calculated liquid junction potential value (13.6 mV) in Clampex (Molecular Devices). For gramicidin perforated-patch experiments, intracellular Cl^− values were back-calculated using measured EGABA values and the Nernst equation: […]

hippocampus = assay: Neuronal cell death in the hippocampus, Compound A with diazepam; format: in vivo; conditions: mice, Compound A and diazepam vs diazepam alone

C[C@@H]1CN(c2nc3c(c(Nc4ccc(C5CCCCC5)cc4)n2)COC3)CCO1 [Compound A, (R)—N-(4-cyclohexylphenyl)-2-(2-methylmorpholino)-5,7-dihydrofuro[3,4-d]pyrimidin-4-amine]
EC50 (KCC3): > 100 µM | reduction in Cl− ([1]; 15 min, calculated from EGABA): 2.2 ± 0.6 mM | EGABA at 15 min ([1]; from −75±3.1 at 0 min, bumetanide and TTX present): −85.1±4.2 mV | neuronal cell death in the hippocampus (hippocampus): significantly reduced
